In patent US20240173316A1, “Methods and Compositions for Treating Cancer” (Ohio Northern University, priority 2022, published 2024):

Columns and labels:
[1] = target: RGS2-Galpha-q interaction (Homo sapiens (Human), UniProt P41220); assay: NanoBit RGS/Gα cell-based protein-protein interaction assay, RGS2; settings: for Selectivity: RGS4 IC50/RGS2 IC50; for IC50: inhibition of RGS2-Galpha-q interaction, read-out: RGS2 IC50 μM (95% Cl)
Method: (§1) The NanoBit cell-based assay was performed as previously described. The NanoBit substrate (NanoGlo Live Cell Reagent) was prepared as a 5× stock, per the manufacture's protocol, and added to the wells at 10 μL per well. Post substrate addition, a baseline signal was established for 30 minutes using a BioTek Synergy 2 plate reader in luminescent mode. Post baseline read 10 μL of vehicle (Hank's Balanced Salt solution+20 mM HEPES) or AlF4 (stock solution: 40 mM NaF, 500 μM AlCl3) was added and luminescence was measured for an additional 30 minutes. Lastly, 4× compound or vehicle (DMSO) was added to the appropriate wells, and the plate was read for an additional hour. Data presented represents the mean of N=3 independent experiments±S.E.M. All data analysis was completed in GraphPad Prism 7 and 8.
(§2) All selected compounds were purchased and tested for their ability to inhibit RGS2-Galpha-q interaction in NanoBit assays. The same assay was also used to test the compounds' ability to inhibit RGS4-Galpha-q interaction as a measure of selectivity. RGS4 was not part of the docking calculations performed here because no structure is available for the human RGS4. It was used in the assays, nonetheless, to test for the validity of our docking approach to selectivity and binding.

[2] = target: RGS4-Galpha-q interaction (Homo sapiens (Human), UniProt P49798); assay: NanoBit RGS/Gα cell-based protein-protein interaction assay, RGS4; settings: for IC50: inhibition of RGS4-Galpha-q interaction, read-out: RGS4 IC50 μM (95% Cl)
Method: as §1, §2

NCI 60 cell panel = assay: NCI 60 Cell One-Dose Screen; format: cell-based, human; settings: single high dose 10^−5 M; leukemia, NSCLC, colon, CNS, melanoma, ovarian, renal, prostate, breast
Method: Another study was conducted to measure the cytotoxic effect of the RGS2 inhibitor. The growth reduction feature of direct RGS2 inhibitors was examined within the National Cancer Institute single high dose panel established that the drug was cytotoxic across a variety of cancers. Spanning across 60 standard cancer cell lines, this cytotoxicity assessment measured anti-proliferative activity within the following cancer types, with numerous subtypes below them: leukemia, non-small cell lung cancer, colon cancer, central nervous system cancer, melanoma, ovarian cancer, renal cancer, prostate cancer, and breast cancer.
The NCI 60 Cell One-Dose Screen is a standardized test carried out by National Cancer Institute, where a compound is tested at an initial single high dose (10^−5 M) across the full NCI 60 cell panel. Once a compound is assessed to be effective against a standard threshold number of cell lines, the compound is progresses to a full five-dose screen to determine anti-proliferative capability. This assay is ran relative to parallel studies with a no-drug control and at time zero number of cells.

[3] = test system: LNCaP prostate cancer cell line; assay: Wound healing (scratch) migration assay; format: cell-based, human; settings: 1 μM, more potently at 2 μM and higher
Method: It has previously been shown that RGS2 gene expression in the human prostate cancer cells LnCap were downgraded by infection with small hairpin RNA (shRNA) targeting the RGS2 gene (henceforth “shRGS2”). These shRGS2 LnCap cells expressed lower levels of RGS2 protein compared to the non-infected control, leading to a reduction in RGS2 activity.
Metastatic evaluation was carried out by a wound healing assay. A wound healing assay measures cell migration of individual cells, cell sheets, and clusters from one location to another. A single mechanical laceration was made on a 12-well plate growing a cancer cells monolayer that was grown overnight, and the cells were allowed to regrow across the inclusion over the span of 48 hours. Results were recorded between the knockdown shRGS2 and control in values of the closure % as the wound healing took place at 24 hour and 48 hour time points (FIG. 3). Results for the RGS2 inhibitor treated cells were recorded as pictures taken at 5 separate time points every 24 hours (FIG. 4A-H).

Sequence of RGS2-Galpha-q interaction (P41220 whole entry): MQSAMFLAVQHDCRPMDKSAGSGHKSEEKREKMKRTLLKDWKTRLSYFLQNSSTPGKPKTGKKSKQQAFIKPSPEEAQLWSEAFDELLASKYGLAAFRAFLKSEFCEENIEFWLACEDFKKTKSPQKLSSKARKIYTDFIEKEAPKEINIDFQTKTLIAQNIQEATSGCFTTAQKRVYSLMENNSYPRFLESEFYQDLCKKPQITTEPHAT
Sequence of RGS4-Galpha-q interaction (P49798 whole entry): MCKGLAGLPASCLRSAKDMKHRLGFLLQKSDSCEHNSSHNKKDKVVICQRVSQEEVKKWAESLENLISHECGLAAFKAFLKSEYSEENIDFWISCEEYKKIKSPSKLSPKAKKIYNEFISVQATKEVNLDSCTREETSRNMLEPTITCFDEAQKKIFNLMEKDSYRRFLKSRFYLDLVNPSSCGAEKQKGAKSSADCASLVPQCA

| Selectivity [1] | IC50 [1] [µM] | IC50 [2] [µM] | activity towards RGS4 ([2]; result in words) | Compound | cytotoxic effect across cancer types (NCI 60 cell panel) | migration of LNCaP cells [3] |
| --- | --- | --- | --- | --- | --- | --- |
| 13 | 1.45 | 18.8 | – | COc1ccc(Cn2nnnc2[C@H](c2cc3cc(C)ccc3[nH]c2=O)N2CCN(C3CCCCC3)CC2)cc1 [AJ-2] | – | – |
| 1.81 | 13.8 | 25 | – | Cc1ccc([C@@H](C(=O)NC2CCCCC2)N(Cc2ccccc2Cl)C(=O)c2ccc(CN3CCOCC3)o2)o1 [AJ-4] | strong cytotoxic effect against the full list of cancers | – |
| 0.51 | 27.6 | 14.1 | – | Cn1c(=O)c2c(nc(NCc3ccccc3)n2C[C@H](O)CN2CCN(Cc3ccccc3)CC2)n(C)c1=O [AJ-7] | – | – |
| 0.29 | 33.1 | 9.6 | – | CCc1ccc2[nH]c(=O)c(C(c3nnnn3Cc3ccc(F)cc3)N3CCN(C4CCCCC4)CC3)cc2c1 (stereo not drawn) [AJ-8] | strong cytotoxic effect against the full list of cancers | – |
| 2.72 | 33.5 | 91 | – | Cc1cc(C)c2[nH]c(=O)c(C(c3nnnn3Cc3ccc(F)cc3)N3CCN(C4CCCCC4)CC3)cc2c1 (stereo not drawn) [AJ-9] | strong cytotoxic effect against the full list of cancers | – |
| 289 | 0.04 | 10.1 | – | Nc1nc2c(nc(NCCCN3CCOCC3)n2[C@H]2O[C@@H](CO)[C@H](O)[C@@H]2O)c(=O)[nH]1 [AJ-1] | cytotoxic effect against all aforementioned cancers except prostate, ovarian, and colon cancer | – |
| 4.25 | 4.94 | 21 | – | Cc1onc(C(=O)NNC(=O)Nc2ccc(Cl)cc2)c1C(=O)N1CCN(C(c2ccccc2)c2ccccc2)CC1 [AJ-3] | strong cytotoxic effect against the full list of cancers | inhibited the migration ability |
| – | 78 | – | no apparent activity towards RGS4 | COCc1ccc2[nH]c(=O)c(C(c3nnnn3C[C@H]3CCCO3)N3CCN(Cc4ccccc4)CC3)cc2c1 (stereo partly drawn) [AJ-10] | strong cytotoxic effect against the full list of cancers | – |
| 0.48 | 19.8 | ~9.6 | – | Cc1cccc2cc([C@H](c3nnnn3Cc3ccc4c(c3)OCO4)N3CCN(C)CC3)c(=O)[nH]c12 [AJ-6] | – | – |
| 1.53 | 15 | 23 | – | Cc1cc(C)c2[nH]c(=O)c([C@@H](c3nnnn3Cc3ccc4c(c3)OCO4)N3CCN(C)CC3)cc2c1 [AJ-5] | – | – |
